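Protocol summary: plate cells (96-well), add compound at 5 concentrations, incubate 48 h, interpolate endpoints linearly. TGI: total growth inhibition.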

This note sets out measurements from PubChem BioAssay (NCI).

Some test systems named below: SK-MEL-5 melanoma; HCT-15 colon; SK-MEL-28 melanoma; NCI-H23 lung; LOX IMVI melanoma; OVCAR-4 ovarian; K-562 leukemia; OVCAR-5 ovarian; OVCAR-8 ovarian; CAKI-1 renal; MOLT-4 leukemia; COLO 205 colon; SN12C renal; NCI/ADR-RES ovarian; NCI-H226 lung; HT29 colon; SK-OV-3 ovarian; HCT-116 colon; IGROV1 ovarian; HCC-2998 colon.
Holding throughout (assay): DTP human tumour cell line panel, 48 h

Turning to `CSCCC(NC(=O)OCc1ccccc1)NC(=O)OCc1ccccc1`, the TGI in the assay on SK-MEL-5 melanoma, with HCT-15 colon, in the assay on SK-MEL-28 melanoma, in the assay on NCI-H23 lung, with LOX IMVI melanoma and in the assay on OVCAR-4 ovarian was greater than 100 µM in each case. The TGI in the assay with K-562 leukemia, in the assay on OVCAR-5 ovarian, with OVCAR-8 ovarian, in the assay with CAKI-1 renal, in the assay on MOLT-4 leukemia and with COLO 205 colon was greater than 100 µM throughout. Further, the TGI in the assay on SN12C renal, in the assay with NCI/ADR-RES ovarian, with NCI-H226 lung, in the assay on HT29 colon, in the assay on SK-OV-3 ovarian and in the assay on HCT-116 colon was greater than 100 µM throughout. The concentration for total growth inhibition (TGI) in the assay with IGROV1 ovarian and with HCC-2998 colon was greater than 100 µM throughout.

Turning to `NC1(C(=O)O)CCCC1`, the TGI with SK-MEL-5 melanoma, in the assay on HCT-15 colon, in the assay with SK-MEL-28 melanoma, in the assay with NCI-H23 lung, with LOX IMVI melanoma and in the assay with OVCAR-4 ovarian was greater than 625 µM throughout. Also, the TGI with K-562 leukemia, in the assay with OVCAR-5 ovarian, in the assay with OVCAR-8 ovarian, in the assay on CAKI-1 renal, with MOLT-4 leukemia and in the assay with COLO 205 colon was greater than 625 µM throughout. The TGI in the assay with SN12C renal, with NCI/ADR-RES ovarian, in the assay on NCI-H226 lung, in the assay with HT29 colon, in the assay with SK-OV-3 ovarian and in the assay on HCT-116 colon was greater than 625 µM throughout. The TGI with IGROV1 ovarian and in the assay with HCC-2998 colon was greater than 625 µM in each case.
